{"source": "patent US20020169153A1", "about": "“Substituted aromatic compounds for treatment of antibiotic resistant infections” (priority 1998, published 2002)", "test_system": "Staphylococcus aureus methicillin-resistant wild type T67738", "assay": "Susceptibility test, microtiter broth dilution (MIC), resistant S. aureus", "type": "cell-based", "conditions": "in culture", "procedure": "The strains were streaked on blood agar plates (trypticase soy broth containing 5% sheep cells). A single colony was isolated and grown in Mueller-Hinton Broth (MHB) as recommended by the national Committee for Clinical Laboratory Standards for rapidly growing bacteria. Candida species and related yeasts were isolated in a similar manner on brain-heart infusion agar (BHI).\nThe antibiotic susceptibility profile of each strain was determined using standard microtiter dilution plates obtained from the Clinical Microbiology Laboratory at Ohio State University Hospitals. The Inocula were prepared by suspending a 4 hour log phase growth in MHB visually equal in turbidity of an 0.5 McFarland standard. Inocula were further diluted and added to microdilution trays to achieve a final density of approximately 1×10^5 CFU/ml. The trays were incubated for 16 to 20 hours at 35° C. The highest dilution at which wells remained clear was considered to be the minimum inhibitory concentration (MIC).\nThe MIC and minimum bacterial concentration (MBC) of the strains to the active agents were determined by two-fold dilutions in Mueller-Hinton broth. […]"}
{"smiles": "OC(c1c2cccc(Cl)c2cc2c(Cl)cccc12)C1CCCCN1", "note": "(stereo not drawn) [WR 218394, α-(2-PIPERIDYL)-4,5-DICHLORO-9-ANTHRACENEMETHANOL]", "values": [{"measurement": "Effective Concentration S. Aureous (Resist).", "value": 3.1, "unit": "µg/mL"}]}
